# From patent US20160002273A1, “THIENO[3,2-D]PYRIMIDINE-6-CARBOXAMIDES AND ANALOGUES AS SIRTUIN MODULATORS” (GLAXOSMITHKLINE LLC, priority 2013, published 2016)
# Read-outs that look alike come from different tables or passages of the source.
# Columns and labels:
# SIRT1 = biological target: T1, SIRT1 (Homo sapiens, UniProt Q96EB6); experiment: SIRT1 deacetylation of Trp 5-mer peptide, OAADPr mass spec assay
# T1 sequence (Q96EB6 1-747): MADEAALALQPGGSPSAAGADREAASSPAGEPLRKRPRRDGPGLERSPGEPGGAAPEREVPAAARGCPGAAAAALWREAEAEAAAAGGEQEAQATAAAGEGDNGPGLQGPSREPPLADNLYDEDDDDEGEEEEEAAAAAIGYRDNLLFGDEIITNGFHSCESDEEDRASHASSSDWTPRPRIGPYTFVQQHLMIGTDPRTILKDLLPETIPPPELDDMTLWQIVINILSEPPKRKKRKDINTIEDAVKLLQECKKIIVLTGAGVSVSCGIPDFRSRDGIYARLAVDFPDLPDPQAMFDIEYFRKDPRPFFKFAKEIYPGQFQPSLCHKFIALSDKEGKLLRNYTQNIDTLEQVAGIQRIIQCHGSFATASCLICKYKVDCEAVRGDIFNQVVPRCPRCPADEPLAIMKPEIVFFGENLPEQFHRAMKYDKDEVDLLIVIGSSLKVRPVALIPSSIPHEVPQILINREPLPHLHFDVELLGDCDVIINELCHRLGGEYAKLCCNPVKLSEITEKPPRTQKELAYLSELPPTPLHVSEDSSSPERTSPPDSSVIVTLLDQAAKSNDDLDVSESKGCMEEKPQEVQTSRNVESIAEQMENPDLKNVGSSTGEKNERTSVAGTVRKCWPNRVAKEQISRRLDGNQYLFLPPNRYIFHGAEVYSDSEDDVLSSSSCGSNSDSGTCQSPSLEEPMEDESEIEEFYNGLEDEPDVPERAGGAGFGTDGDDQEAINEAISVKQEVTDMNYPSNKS
# SIRT2 = biological target: T2, SIRT2 (Homo sapiens, UniProt Q8IXJ6); experiment: SIRT2 deacetylation of Trp 5-mer peptide, OAADPr mass spec assay; format: biochemical; parameters: His-SIRT2(1-389)
# T2 sequence (Q8IXJ6 1-389): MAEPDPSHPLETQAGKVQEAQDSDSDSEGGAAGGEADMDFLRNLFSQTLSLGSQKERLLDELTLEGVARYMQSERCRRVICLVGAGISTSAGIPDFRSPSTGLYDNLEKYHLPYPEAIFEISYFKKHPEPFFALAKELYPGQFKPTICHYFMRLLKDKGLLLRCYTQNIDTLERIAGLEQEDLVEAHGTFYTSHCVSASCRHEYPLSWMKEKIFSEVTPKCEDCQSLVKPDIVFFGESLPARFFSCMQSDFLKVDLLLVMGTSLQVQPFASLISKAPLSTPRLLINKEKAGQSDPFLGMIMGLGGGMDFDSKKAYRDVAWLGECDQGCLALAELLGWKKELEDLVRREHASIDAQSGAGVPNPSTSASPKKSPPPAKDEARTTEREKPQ
# SIRT3 = biological target: T3, SIRT3 (Homo sapiens, UniProt Q9NTG7); experiment: SIRT3 deacetylation of Trp 5-mer peptide, OAADPr mass spec assay
# T3 sequence (Q9NTG7 102-399): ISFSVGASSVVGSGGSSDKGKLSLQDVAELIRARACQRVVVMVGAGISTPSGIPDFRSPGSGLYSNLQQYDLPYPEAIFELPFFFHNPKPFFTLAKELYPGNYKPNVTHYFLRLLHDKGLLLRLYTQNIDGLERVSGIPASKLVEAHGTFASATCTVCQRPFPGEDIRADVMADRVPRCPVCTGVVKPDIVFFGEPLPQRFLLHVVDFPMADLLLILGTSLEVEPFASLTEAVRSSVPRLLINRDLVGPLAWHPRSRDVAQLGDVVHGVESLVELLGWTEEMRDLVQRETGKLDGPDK
# [1] = Trp SIRT1_IC50, Trp 5-mer peptide, class symbols
# [2] = Trp 5-mer peptide, class symbols, read-out: Trp SIRT2_IC50
# [3] = Trp SIRT3_IC50, Trp 5-mer peptide, class symbols
SMILES,IC50 (SIRT1; [1]),IC50 (SIRT2; [2]),IC50 (SIRT3; [3]),"IC50 (SIRT1; IC50 (μM) SIRT1, Trp 5-mer peptide and NAD at KM, mean of at least three determinations)","SIRT1 inhibition, in words (SIRT1; at the concentrations tested)","IC50 (SIRT2; Trp 5-mer peptide and NAD at KM, mean of at least three determinations, read-out: IC50 (μM) SIRT2)","IC50 (SIRT3; IC50 (μM) SIRT3, Trp 5-mer peptide and NAD at KM, mean of at least three determinations)","SIRT3 inhibition, in words (SIRT3; at the concentrations tested)"
NC(=O)c1cc2ncnc(N3CCC(C(=O)N4CCCC4)CC3)c2s1 [Compound 182],> 10 µM,1 to 10 µM,1 to 10 µM,,,,,
CS(=O)(=O)NCCN1CCN(c2ncnc3cc(C(N)=O)oc23)CC1 [Compound 89],1 to 10 µM,< 1 µM,< 1 µM,,,,,
"CC(C)(C)C(=O)NCCC1CCN(c2ncc(Br)c3cc(C(N)=O)sc23)CC1 [Compound 112, 4-bromo-7-(4-(2-pivalamidoethyl)piperidin-1-yl)thieno[2,3-c]pyridine-2-carboxamide]",1 to 10 µM,1 to 10 µM,> 10 µM,,,,,
Cc1nc(N2CCN(CCNC(=O)OC(C)(C)C)CC2)c2sc(C(N)=O)cc2n1 [Compound 149],> 10 µM,1 to 10 µM,1 to 10 µM,,,,,
NCCNC(=O)c1cccc(C(=O)NCCN2CCN(c3ncnc4ccsc34)CC2)c1 [Compound 191],> 10 µM,> 10 µM,> 10 µM,,,,,
NC(=O)c1cc2ncnc(N3CCN(CCNC(=O)C4CCCC4)CC3)c2s1 [Compound 63],< 1 µM,< 1 µM,< 1 µM,,,,,
NC(=O)c1cc2ncnc(N3CCC(CCO)CC3)c2s1 [Compound 50],< 1 µM,< 1 µM,< 1 µM,,,,,
Cc1nc(N2CCC(CCN3CCCC3)CC2)c2sc(C(N)=O)cc2n1 [Compound 146],1 to 10 µM,1 to 10 µM,< 1 µM,,,,,
Cc1nc(N2CCN(CCNC(=O)C(C)(C)C)CC2)c2sc(C(N)=O)cc2n1 [Compound 156],1 to 10 µM,< 1 µM,1 to 10 µM,,,,,
Cc1nc(N2CCC(CCO)CC2)c2sc(C(N)=O)cc2n1 [Compound 151],1 to 10 µM,1 to 10 µM,1 to 10 µM,,,,,
"CC(C)(C)OC(=O)NCCN1CCN(c2ncnc3cc(C(N)=O)sc23)CC1 [Compound 15b, tert-butyl (2-(4-(6-carbamoylthieno[3,2-d]pyrimidin-4-yl)piperazin-1-yl)ethyl)carbamate]",< 1 µM,< 1 µM,< 1 µM,,,,,
"NC(=O)c1cc2ncnc(N3CCN(CCO)CC3)c2s1 [Compound 44, 4-(4-(2-hydroxyethyl)piperazin-1-yl)thieno[3,2-d]pyrimidine-6-carboxamide]",1 to 10 µM,< 1 µM,1 to 10 µM,,,,,
Cc1nc(N2CCC(CCNC(=O)C(C)(C)C)CC2)c2sc(C(N)=O)cc2n1 [Compound 159],< 1 µM,< 1 µM,1 to 10 µM,,,,,
NCCN1CCN(c2ncnc3cc(C(N)=O)oc23)CC1 [Compound 96],> 10 µM,1 to 10 µM,1 to 10 µM,,,,,
Cc1nc(N2CCN(CCN3CCCC3)CC2)c2sc(C(N)=O)cc2n1 [Compound 150],1 to 10 µM,1 to 10 µM,< 1 µM,,,,,
"CC(C)(C)OC(=O)NCCC1CCN(c2ncnc3cc(C(=O)O)sc23)CC1 [Compound 189, 4-(4-(2-((tert-butoxycarbonyl)amino)ethyl)piperidin-1-yl)thieno[3,2-d]pyrimidine-6-carboxylic acid]",> 10 µM,> 10 µM,> 10 µM,,,,,
CCNC(=O)c1ccc(C(=O)NCCC2CCN(c3ncnc4cc(C(=O)NCC)sc34)CC2)s1 [Compound 194],1 to 10 µM,1 to 10 µM,1 to 10 µM,,,,,

# Other lines, results leading:
IC50 (SIRT1; [1]),IC50 (SIRT2; [2]),IC50 (SIRT3; [3]),"IC50 (SIRT1; IC50 (μM) SIRT1, Trp 5-mer peptide and NAD at KM, mean of at least three determinations)","SIRT1 inhibition, in words (SIRT1; at the concentrations tested)","IC50 (SIRT2; Trp 5-mer peptide and NAD at KM, mean of at least three determinations, read-out: IC50 (μM) SIRT2)","IC50 (SIRT3; IC50 (μM) SIRT3, Trp 5-mer peptide and NAD at KM, mean of at least three determinations)","SIRT3 inhibition, in words (SIRT3; at the concentrations tested)",SMILES
< 1 µM,< 1 µM,< 1 µM,,,,,,NC(=O)c1cc2ncnc(N3CCC(CN4CCCC4C(F)(F)F)CC3)c2s1 (centres unmarked) [Compound 132]
> 10 µM,1 to 10 µM,> 10 µM,> 50 µM,no measurable,10 µM,> 50 µM,no measurable,"CNC(=O)c1cc2ncnc(N3CCC(CCNC(=O)C(C)(C)C)CC3)c2s1 [Compound 41, N-Methyl-4-(4-(2-pivalamidoethyl)piperidin-1-yl)thieno[3,2-d]pyrimidine-6-carboxamide]"
> 10 µM,> 10 µM,> 10 µM,,,,,,CCNC(=O)c1cccc(C(=O)NCCN2CCN(c3ncnc4ccsc34)CC2)c1 [Compound 190]
1 to 10 µM,< 1 µM,< 1 µM,,,,,,CN(C)CCC1CCN(c2ncnc3cc(C(N)=O)sc23)CC1 [Compound 46]
< 1 µM,< 1 µM,< 1 µM,,,,,,NC(=O)c1cc2ncnc(N3CCC(CCn4ccnc4)CC3)c2s1 [Compound 52]
> 10 µM,1 to 10 µM,1 to 10 µM,,,,,,"Cc1c(C(N)=O)sc2c(N3CCC(CCN)CC3)ncnc12 [Compound 117, 4-(4-(2-aminoethyl)piperidin-1-yl)-7-methylthieno[3,2-d]pyrimidine-6-carboxamide]"
1 to 10 µM,< 1 µM,1 to 10 µM,,,,,,COCCN1CCN(c2ncnc3cc(C(N)=O)sc23)CC1 [Compound 45]
< 1 µM,< 1 µM,< 1 µM,,,,,,"NC(=O)c1cc2ncnc(N3CCC(CN4CCCC(C(F)(F)F)C4)CC3)c2s1 (centres unmarked) [Compound 131, 4-(4-((3-(trifluoromethyl)piperidin-1-yl)methyl)piperidin-1-yl)thieno[3,2-d]pyrimidine-6-carboxamide]"
1 to 10 µM,1 to 10 µM,1 to 10 µM,,,,,,COCCC1CCN(c2ncnc3cc(C(N)=O)oc23)CC1 [Compound 91]
< 1 µM,< 1 µM,1 to 10 µM,,,,,,CC(C)(C)OC(=O)NCCN1CCN(c2ncnc3cc(C(N)=O)oc23)CC1 [Compound 86]
1 to 10 µM,< 1 µM,1 to 10 µM,,,,,,Cc1nc(N2CCN(CCNC(=O)C3CCCC3)CC2)c2sc(C(N)=O)cc2n1 [Compound 157]
< 1 µM,< 1 µM,< 1 µM,,,,,,CS(=O)(=O)NCCC1CCN(c2ncnc3cc(C(N)=O)oc23)CC1 [Compound 99]
1 to 10 µM,1 to 10 µM,1 to 10 µM,,,,,,CNC(=O)CC1CCN(c2ncnc3cc(C(N)=O)sc23)CC1 [Compound 48]
< 1 µM,< 1 µM,< 1 µM,,,,,,"CC(C)(C)OC(=O)NCCC1CCN(c2ccnc3cc(C(N)=O)sc23)CC1 [Compound 103, tert-butyl (2-(1-(2-carbamoylthieno[3,2-b]pyridin-7-yl)piperidin-4-yl)ethyl)carbamate]"
> 10 µM,1 to 10 µM,1 to 10 µM,,,,,,"Cc1nc(N2CCC(CCN)CC2)c2sc(C(N)=O)cc2n1 [Compound 152, 4-(4-(2-aminoethyl)piperidin-1-yl)-2-methylthieno[3,2-d]pyrimidine-6-carboxamide]"
> 10 µM,> 10 µM,1 to 10 µM,,,,,,"NC(=O)c1cc2ncnc(N3CCC(C4CCNCC4)CC3)c2o1 [Compound 100, 4-([4,4′-bipiperidin]-1-yl)furo[3,2-d]pyrimidine-6-carboxamide]"
< 1 µM,< 1 µM,< 1 µM,,,,,,NC(=O)c1cc2ncnc(N3CCC(CCN4CCCC4=O)CC3)c2s1 [Compound 47]
> 10 µM,1 to 10 µM,1 to 10 µM,,,,,,Cc1nc(N2CCC(CN3CCCC3)CC2)c2sc(C(N)=O)cc2n1 [Compound 147]
1 to 10 µM,< 1 µM,1 to 10 µM,,,,,,"NCCC1CCN(c2ncnc3cc(C(N)=O)oc23)CC1 [Compound 95, 4-(4-(2-aminoethyl)piperidin-1-yl)furo[3,2-d]pyrimidine-6-carboxamide]"
